Source: patent US8507445B2, “Compositions and methods of use of targeting peptides for diagnosis and therapy of human cancer” (Board of Regents, The University of Texas System, priority 2002, dated 2013)

How the values were obtained:
DU145 xenografts [1] = test: Biopanning of X2CX14CX2 phage library in tumor-bearing mice; assay type: in vivo, nude mice; details: third round, 76 translated clones
Protocol: DU145 prostate tumor cells were injected subcutaneously into the right fat pad of nude mice. A large phage library (X2CX14CX2) was prepared as discussed above and 10^9 phage were injected into male tumor-bearing nude mice. After 24 hr circulation, tumors were removed and phage recovered from the tumors using the bulk method disclosed above. The recovered phage were amplified, titered and reinjected into a new set of tumor bearing nude mice. The biopanning protocol was repeated for a total of three rounds. Ninety-six phage clones recovered from the third round of biopanning were selected for sequencing. Translated sequences were obtained for 76 of the 96 clones.

[2] = system: immunoglobulins from the serum of metastatic prostate cancer patients; test: Biopanning of CX6C phage library on IgGs from serum of prostate cancer patients A, B, C; assay type: binding, human; details: for share of the clones analyzed: second and third rounds, patient A, B or C that yielded the peptide; for share of the clones in round II / share of the clones in round III: patient C
Source text: Sera was selected from patients diagnosed with androgen-dependent and androgen-independent prostate cancer. A CX6C peptide library was screened against this pool of IgGs in a two-step procedure. First, the peptide library was pre-cleared against a pool of purified IgGs from normal serum samples using Protein G affinity chromatography. This step removed peptides from the phage display library that bound to immunoglobulins from patients without prostate cancer. Next, the pre-cleared peptide library was screened against the pool of purified IgGs from the serum of prostate cancer patients. This step selected peptides binding specifically to IgGs elicited against prostate cancer.
A 6-mer cyclic peptide (CX6C) phage display library was used for the biopanning. To select peptides specific to the serum antibodies of cancer patients, a pre-clearing stage was employed to remove non-specific peptides by pre-absorbing the peptide library onto purified IgGs from pooled normal serum (five healthy male individuals). The pre-cleared peptide library was screened onto the purified IgGs from the serum of prostate cancer patients. In brief, 10^9 transducing units (T.U.) of a CX6C cyclic peptide phage library were incubated with IgG antibodies from 50 μl of normal serum immobilized on 50 μl of protein G (Gibco BRL) for 1 hour at 4° C. This was followed by affinity selection on the immobilized IgG antibodies from prostate cancer patient serum for 2 hours at 4° C. Phage peptides specifically bound to IgGs elicited against prostate cancer were eluted with 100 μl of 0.1 M glycine buffer, pH 2.2, neutralized by the addition of 10 μl 1M Tris pH 9.0, and used to infect E. coli strain K91. Ten-fold serial dilutions of the infected solution were spread onto agar plates containing 40 μg/ml of tetracycline and grown overnight. Two hundred colonies were picked, amplified, and precipitated for a subsequent round of panning. A total of three rounds were performed. Individual phage clones were picked for PCR and the insert DNA was sequenced.

[3] = system: immunoglobulins from the serum of prostate cancer patient M; test: Biopanning on purified immunoglobulins from serum of prostate cancer patient M; assay type: binding, human; details: three rounds of panning; for phage exhibiting the sequence / total clones, 1994 Serum: early stage; for phage exhibiting the sequence / total clones, 1998 Serum: intermediate stage; for phage exhibiting the sequence / total clones, 2000 Serum: late stage
Source text: The methods used were similar to those described in Example 4. A subtraction protocol was used, in which IgG from a normal individual was coupled to protein G chromatography beads. A cyclic CX6C phage display library, prepared as described above, was exposed to the normal IgG's. […] Antibodies from patient M (prostate cancer patient) were attached to fresh protein G chromatograpy beads. […] This procedure was followed for three rounds of screening and targeting peptides against patient M's antibodies were obtained.
Serum samples from the same patient were obtained from archival specimens and used to obtain targeting peptides. Patient M's serum from 1994 (early stage cancer), 1998 (intermediate stage) and 2000 (late stage) were used to obtain antibody targeting peptides as described above.

DU145 xenografts [4] = test: Phage localization by anti-phage staining of tissues; assay type: in vivo, nude mice; details: 24 hour circulation
Protocol: To determine the specificity of the prostate tumor targeting peptides, 10^9 phage carrying the targeting peptide sequences […] (SEQ ID NO:83) and […] (SEQ ID NO:84) were injected into nude mice bearing DU145 xenografts. After 24 hour circulation, tissue samples were obtained from tumor and control organs (kidney, brain, lung and spleen). Tissue samples were washed immediately in DMAM and fixed in 10% formalin for 48 hours at room temperature. Thin sections were stained for phage using anti-phage antibody (1:500 dilution) and detected using the DAKO LSAB+ system. […] This may be due to the tendency of spleen tissue to trap phage and other foreign particles in general as part of the reticuloendothelial system.

Row | Sequence | number of times the sequence was obtained (DU145 xenografts [1]) | other results
1 | EGCSDIMNTAAERVTGDCSY | EGCSDIMNTAAERVTGDCSY (2) | 
2 | NNCPVEGSQQNYSGATWCRA | NNCPVEGSQQNYSGATWCRA (1) | 
3 | GDCETNNVTKVGGITRNCVG | GDCETNNVTKVGGITRNCVG (1) | 
4 | CHQKPWEC |  | share of the clones analyzed [2]: 100%
5 | CNKTDKGC |  | share of the clones in round II [2]: 16.7%; share of the clones in round III [2]: 0%
6 | GPCAATGVNPGDHGAAVCDQ | GPCAATGVNPGDHGAAVCDQ (1) | 
7 | CIDMTHQC |  | phage exhibiting the sequence / total clones, 1994 Serum [3]: CIDMTHQC (1/22)
8 | CKNKHTTC |  | phage exhibiting the sequence / total clones, 1998 Serum [3]: CKNKHTTC (1/20)
9 | MHCTSQTLRGTPSLAPKCSD | MHCTSQTLRGTPSLAPKCSD (1) | 
10 | CKDRFERC |  | share of the clones analyzed [2]: 100%
11 | CNQSMWSC |  | phage exhibiting the sequence / total clones, 1994 Serum [3]: CNQSMWSC (1/22)
12 | LGCMASMLREFEGATHACTQ |  | anti-phage staining of control kidney, brain or lung (DU145 xenografts [4]): No staining was observed; anti-phage staining of normal spleen (DU145 xenografts [4]): low level of anti-phage staining; anti-phage staining of tumor (DU145 xenografts [4]): very heavy staining
13 | CNNMYAGC |  | phage exhibiting the sequence / total clones, 1998 Serum [3]: CNNMYAGC (1/20)
14 | LGCNKGRYWLSTRLSVSCAL | LGCNKGRYWLSTRLSVSCAL (1) | 
15 | KICPVTNMWTTPSWAHKCGM | KICPVTNMWTTPSWAHKCGM (1) | 
16 | RECGRTVHRYPWGSPESCER | RECGRTVHRYPWGSPESCER (2) | 
17 | VFCCGSYCGGVEMLASRCGH | VFCCGSYCGGVEMLASRCGH (2) | 
18 | TLCPPASMGLGREKPRLCSV | TLCPPASMGLGREKPRLCSV (1) | 
19 | ARCREDTGFMGLGSANICTD | ARCREDTGFMGLGSANICTD (1) | 
20 | RTCQVRSNNISPRMALACVT | RTCQVRSNNISPRMALACVT (1) | 
21 | CFETFAGC |  | phage exhibiting the sequence / total clones, 1998 Serum [3]: CFETFAGC (1/20)
22 | KSCGKYGLIVGQPFAEHCPP | KSCGKYGLIVGQPFAEHCPP (1) | 
23 | CSASDLSC |  | phage exhibiting the sequence / total clones, 1994 Serum [3]: CSASDLSC (2/22)
24 | CAVKSVTC |  | phage exhibiting the sequence / total clones, 1994 Serum [3]: CAVKSVTC (1/22)

Row | Sequence | number of times the sequence was obtained (DU145 xenografts [1]) | other results
25 | TLCRSLEHEVGLFKPRECPF | TLCRSLEHEVGLFKPRECPF (1) | 
26 | GNCMGLQVSELFMGPYKCRQ | GNCMGLQVSELFMGPYKCRQ (2) | 
27 | LRCPLEVDRPNRDPAFLCSQ | LRCPLEVDRPNRDPAFLCSQ (1) | 
28 | PNCYSGDGEISSHIPVQCLM | PNCYSGDGEISSHIPVQCLM (1) | 
29 | CNGFMGYC |  | phage exhibiting the sequence / total clones, 1994 Serum [3]: CNGFMGYC (1/22)
30 | TECRGASSGSVSGAATDCRD | TECRGASSGSVSGAATDCRD (1) | 
31 | DRCVLVRPEFGRGDARLCHS | DRCVLVRPEFGRGDARLCHS (2) | 
32 | SRCHALRSQSVSTSAGACIS | SRCHALRSQSVSTSAGACIS (1) | 
33 | CFPKRVTC |  | phage exhibiting the sequence / total clones, 2000 Serum [3]: CFPKRVTC (1/29)
34 | CNITQKSC |  | share of the clones in round II [2]: 33.3%; share of the clones in round III [2]: 0%
35 | GTCPRQFFHMQEFWPSDCSR | GTCPRQFFHMQEFWPSDCSR (3) | 
36 | YSCTRLNGTGLQNPPSACDR | YSCTRLNGTGLQNPPSACDR (1) | 
37 | WVCTSASQDTRLKEPGMCIA | WVCTSASQDTRLKEPGMCIA (1) | 
38 | KLCYRSSAGSELRPPEKCAY | KLCYRSSAGSELRPPEKCAY (1) | 
39 | VRCNEAQLQDSGTVPHPCLR | VRCNEAQLQDSGTVPHPCLR (1) | 
40 | VVCFMERQMGTDVVSPMCVN | VVCFMERQMGTDVVSPMCVN (1) | 
41 | CTFAGSSC |  | phage exhibiting the sequence / total clones, 1994 Serum [3]: CTFAGSSC (6/22); phage exhibiting the sequence / total clones, 1998 Serum [3]: CTFAGSSC (12/20); phage exhibiting the sequence / total clones, 2000 Serum [3]: CTFAGSSC (26/29)
42 | CLTSENAC |  | phage exhibiting the sequence / total clones, 1994 Serum [3]: CLTSENAC (1/22)
43 | CSTFAGSC |  | phage exhibiting the sequence / total clones, 1994 Serum [3]: CSTFAGSC (1/22)
44 | PGCVVSPFALSAQGTSVCTI | PGCVVSPFALSAQGTSVCTI (1) | 
45 | HTCWGARDVAQPSGTVRCLK | HTCWGARDVAQPSGTVRCLK (1) | 
46 | QHCVKGQFPFRESVTITCNS | QHCVKGQFPFRESVTITCNS (1) | 
47 | NRCMPGFLDDADSAASPCGS | NRCMPGFLDDADSAASPCGS (1) | 
48 | RSCVNSDTGVLQRGAPSCLF | RSCVNSDTGVLQRGAPSCLF (1) | 

Row | Sequence | number of times the sequence was obtained (DU145 xenografts [1]) | other results
49 | RGCWRDSTAWHVSYPVECLA | RGCWRDSTAWHVSYPVECLA (1) | 
50 | IGCNHPSPLGSTVVPTYCFK | IGCNHPSPLGSTVVPTYCFK (3) | 
51 | CSKKFVTC |  | phage exhibiting the sequence / total clones, 1998 Serum [3]: CSKKFVTC (3/20)
52 | CISSPSNC |  | phage exhibiting the sequence / total clones, 1994 Serum [3]: CISSPSNC (1/22)
53 | CQFENGTC |  | phage exhibiting the sequence / total clones, 1994 Serum [3]: CQFENGTC (1/22)
54 | CRDGYHHC |  | phage exhibiting the sequence / total clones, 1994 Serum [3]: CRDGYHHC (1/22)
55 | CSYTFAGC |  | phage exhibiting the sequence / total clones, 1994 Serum [3]: CSYTFAGC (1/22)
56 | CQNQYPEC |  | phage exhibiting the sequence / total clones, 1994 Serum [3]: CQNQYPEC (1/22); phage exhibiting the sequence / total clones, 1998 Serum [3]: CQNQYPEC (1/20)
57 | NQCSSLLTYQGWKRTKDCIP | NQCSSLLTYQGWKRTKDCIP (1) | 
58 | TSCVRTGHDENLLKAAYCSS | TSCVRTGHDENLLKAAYCSS (1) | 
59 | VACDISAVERLPASARSCKT | VACDISAVERLPASARSCKT (1) | 
60 | VECVMASASTDGTAAHPCKP | VECVMASASTDGTAAHPCKP (1) | 
61 | CRASAMVC |  | phage exhibiting the sequence / total clones, 1994 Serum [3]: CRASAMVC (1/22)
62 | DACSRFLGERVDATAAGCSR | DACSRFLGERVDATAAGCSR (2) | 
63 | CNSAFAGC |  | phage exhibiting the sequence / total clones, 1994 Serum [3]: CNSAFAGC (1/22); phage exhibiting the sequence / total clones, 1998 Serum [3]: CNSAFAGC (1/20); phage exhibiting the sequence / total clones, 2000 Serum [3]: CNSAFAGC (1/29)
64 | RTCEEVRNRALEELTNFCPY | RTCEEVRNRALEELTNFCPY (1) | 
65 | CNWTDKTC |  | share of the clones in round II [2]: 33.3%; share of the clones in round III [2]: 7%
66 | GYCLTVVGGAVLTLALLCVT | GYCLTVVGGAVLTLALLCVT (1) | 
67 | PNCDLDDIVLNPYTAGPCGT | PNCDLDDIVLNPYTAGPCGT (1) | 
68 | RGCTEAAGLVIGITTHQCGN | RGCTEAAGLVIGITTHQCGN (3) | 
69 | CPRSAKNC |  | phage exhibiting the sequence / total clones, 2000 Serum [3]: CPRSAKNC (1/29)
70 | TTCNKSMSSQPMRDSRECHR | TTCNKSMSSQPMRDSRECHR (1) | 
71 | NDCSAHAQPGWDEVPPMCNQ | NDCSAHAQPGWDEVPPMCNQ (1) | 
